Assay results reported in US20210255193A1, “LYSINE REACTIVE PROBES AND USES THEREOF” (The Scripps Research Institute, priority 2017, published 2021).

Experiments:
[1] = target: T1, CPOX Coproporphyrinogen-III oxidase, mitochondrial (Homo sapiens, UniProt P36551); test: competitive isoTOP-ABPP; type: binding; settings: for isoTOP-ABPP ratio (R) at liganded lysine P36551_K404: 50 uM, in vitro, sol, 231
T1 construct: isoTOP-ABPP experiments performed in cell lysates (in vitro); endogenous in cells; host or cells: soluble proteome of human cancer cell lines (MDA-MB-231; Ramos and Jurkat also prepared)
T1 sequence (P36551 111-454): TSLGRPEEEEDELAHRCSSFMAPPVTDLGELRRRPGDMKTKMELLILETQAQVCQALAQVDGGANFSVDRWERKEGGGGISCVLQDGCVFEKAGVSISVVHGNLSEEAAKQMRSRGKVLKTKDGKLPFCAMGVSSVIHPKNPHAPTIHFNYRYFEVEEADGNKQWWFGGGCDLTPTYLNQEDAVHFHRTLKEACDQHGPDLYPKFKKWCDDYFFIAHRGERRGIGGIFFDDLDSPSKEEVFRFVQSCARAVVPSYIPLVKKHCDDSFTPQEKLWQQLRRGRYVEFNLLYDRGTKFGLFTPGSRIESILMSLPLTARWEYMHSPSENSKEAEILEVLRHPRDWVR
Description: (§1) In vitro covalent fragment treatment for isoTOP-ABPP. All compounds were made up as solutions in DMSO (100×) and were used at a final concentration of 50 μM for activated esters and 100 μM for guanidinylating agents. For each profiling sample, 0.5 ml of lysate was treated with 5 μl of the 100× compound stock solution or 5 μl of DMSO. Samples were treated with activated esters for
(§2) STP-alkyne labeling and click chemistry. For concentration-dependent reactivity measurements by isoTOP-ABPP, 0.5 ml proteome aliquots were treated at ambient temperature with 1 mM STP-alkyne 1 (5 μl of 100 mM stock in DMSO) and 0.1 mM STP alkyne 1 (5 μl of 10 mM stock in DMSO), respectively. For competitive isoTOP-ABPP, after in vitro fragment treatment (detailed above), the samples were labeled for 1 h at ambient temperature with 0.1 mM STP-alkyne 1 (5 μl of 10 mM stock in DMSO). Samples were conjugated by copper-mediated azide-alkyne cycloaddition (CuAAC) to either the light (1 mM STP-alkyne or fragment treated) or heavy (0.1 mM STP-alkyne or DMSO treated) TEV tags (10 μl of 5 mM stocks in DMSO, final concentration=100 μM) using tris(2-carboxyethyl)phosphine hydrochloride
(§3) R value calculation and processing. The ratios of light and heavy MS1 peaks for each unique peptide were quantified with a CIMAGE software using default parameters (3 MS1 acquisitions per peak and signal to noise threshold set to 2.5). For reactivity measurements by isoTOP-ABPP, the R value was calculated from the ratio of MS1 peak areas, comparing the 1 mM STP alkyne sample (light TEV tag) with the 0.1 mM STP alkyne sample (heavy TEV tag). For competitive isoTOP-ABPP, the R value was calculated from the ratio of MS1 peak areas, comparing the DMSO treated sample (heavy TEV tag) with the compound treated sample (light TEV tag). […] Ratios for unique peptide entries are calculated for each experiment; overlapping peptides with the same modified lysine (for example, different charge states, MudPIT chromatographic steps or tryptic termini) are grouped together and the median ratio is reported as the final ratio (R). The peptide ratios reported by CIMAGE were further filtered to ensure the removal or correction of low-quality ratios in each individual data set. The quality filters applied were the following: removal of half tryptic peptides; for ratios with high standard deviations from the median (90% of the median or above) the lowest ratio was taken instead of the median; removal of peptides with R=20 and only a single MS2 event triggered during the elution of the parent ion; manual annotation of all the peptides with ratios of 20, removing any peptides with low quality elution profiles that remained after the previous curation steps (only done for competitive isoTOP-ABPP).
(§4) Cross-data processing for fragment screening. For compound treated samples, biological replicates of the same condition were averaged, if the standard deviation was below 60% of the mean; otherwise, for lysines with at least one R value <4 for a particular compound, the lowest value of the ratio set was taken. For lysines, where all R values for a particular compound were ≥4, the average was reported. For peptides containing several possible modified lysines, the lysine with the highest number of quantification events was used for analysis and the remaining, redundant peptides were reported as alternative modification sites. Peptides included in the aggregate dataset (those used for further bioinformatics and statistical analyses) were required to have been quantified in 2 experiments for competitive isoTOP-ABPP. Lysines were categorized as liganded, if they had at least one ratio R≥4 (hit fragments). For liganded lysines with R=20 for all liganding events, lysines were required to have been quantified with R=20 in two separate experiments and were further required to have been quantified with R<20 in one additional experiment.

[2] = target: T2, ECH1 Delta(3,5)-Delta(2,4)-dienoyl-CoA isomerase, mitochondrial (Homo sapiens, UniProt Q13011); test: competitive isoTOP-ABPP; type: binding; settings: for isoTOP-ABPP ratio (R) at liganded lysine Q13011_K112: 50 uM, in vitro, sol, 231
T2 construct: isoTOP-ABPP experiments performed in cell lysates (in vitro); endogenous in cells; host or cells: soluble proteome of human cancer cell lines (MDA-MB-231, Ramos, Jurkat)
T2 sequence (Q13011 34-328): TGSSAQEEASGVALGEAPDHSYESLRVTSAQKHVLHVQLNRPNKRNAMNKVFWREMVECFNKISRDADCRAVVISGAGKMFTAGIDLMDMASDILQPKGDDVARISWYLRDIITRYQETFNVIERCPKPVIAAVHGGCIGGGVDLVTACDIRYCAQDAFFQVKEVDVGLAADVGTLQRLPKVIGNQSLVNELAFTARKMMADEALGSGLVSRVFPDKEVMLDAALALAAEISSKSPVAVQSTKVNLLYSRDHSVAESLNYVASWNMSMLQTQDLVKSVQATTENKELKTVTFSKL
Description: as §1, §2, §3, §4

Structure (SMILES)	isoTOP-ABPP ratio, lysine P36551_K404 ([1]; 50 uM_231_sol_in vitro)	isoTOP-ABPP ratio, lysine Q13011_K112 ([2]; 50 uM_231_sol_in vitro)	further results
CC(C)(C)OC(=O)NCCCC(=O)Oc1ccc([N+](=O)[O-])cc1[N+](=O)[O-] [fragment 41, 2,4-Dinitrophenyl 4-((tert-butoxycarbonyl)amino)butanoate]			isoTOP-ABPP ratio (R) at liganded lysine P36551_K404 [1]: 1.0; isoTOP-ABPP ratio (R) at liganded lysine Q13011_K112 [2]: 1.0
O=C(Oc1ccc([N+](=O)[O-])cc1[N+](=O)[O-])C(c1ccccc1)(c1ccccc1)c1ccccc1 [fragment 42, 2,4-Dinitrophenyl 2,2,2-triphenylacetate]			isoTOP-ABPP ratio (R) at liganded lysine P36551_K404 [1]: 1.0; isoTOP-ABPP ratio (R) at liganded lysine Q13011_K112 [2]: 1.0
CC(=O)Oc1ccc([N+](=O)[O-])cc1[N+](=O)[O-] [fragment 43, 2,4-Dinitrophenyl acetate]			isoTOP-ABPP ratio (R) at liganded lysine P36551_K404 [1]: 1.1; isoTOP-ABPP ratio (R) at liganded lysine Q13011_K112 [2]: 1.2
N#Cc1ccc(C(=O)Oc2ccc([N+](=O)[O-])cc2[N+](=O)[O-])cc1 [fragment 44, 2,4-Dinitrophenyl 4-cyanobenzoate]	1.0	0.9	
O=C(CCc1ccc2c(c1)OCO2)Oc1ccc([N+](=O)[O-])cc1[N+](=O)[O-] [fragment 45, 2,4-Dinitrophenyl 3-(benzo[d][1,3]dioxol-5-yl)propanoate]	1.2	1.0	
O=C(ON1C(=O)CCC1=O)c1cc(C(F)(F)F)cc(C(F)(F)F)c1 [fragment 46, 3,5-Bis(trifluoromethyl)benzoic acid NHS ester]	1.0	0.8	
O=C(Oc1c(F)c(F)c(C(F)(F)F)c(F)c1F)c1cc(C(F)(F)F)cc(C(F)(F)F)c1 [fragment 47, 2,3,5,6-Tetrafluoro-4-(trifluoromethyl)phenyl 3,5-bis(trifluoromethyl)benzoate]	1.5	1.0	
O=C(Oc1c(F)c(F)cc(F)c1F)c1cc(C(F)(F)F)cc(C(F)(F)F)c1 [fragment 48, 2,3,5,6-Tetrafluorophenyl 3,5-bis(trifluoromethyl)benzoate]	1.0	1.5	
COC(=O)NC(=NC(=O)OCC1c2ccccc2-c2ccccc21)n1cccn1 [fragment 49, N-Methoxycarbonyl-N′-9-fluorenylmethoxycarbonyl-pyrazole-1-carboxamidine]			isoTOP-ABPP ratio, lysine P36551_K404 ([1]; 100 uM_231_sol_in vitro): 2.5; isoTOP-ABPP ratio, lysine Q13011_K112 ([2]; 100 uM_231_sol_in vitro): 1.1
CC(C)(C)OC(=O)N=C(NC(=O)OC(C)(C)C)n1cccn1 [fragment 50, reference compound]			isoTOP-ABPP ratio, lysine P36551_K404 ([1]; 100 uM_231_sol_in vitro): 1.8; isoTOP-ABPP ratio, lysine Q13011_K112 ([2]; 100 uM_231_sol_in vitro): 1.3
NC(=O)c1cc(C(F)(F)F)cc(C(F)(F)F)c1 [fragment 51, reference compound]	0.9	1.0	
